Experimental data reported in publication doi:10.1101/2021.06.10.447950v1 (biorxiv, 2021).

Key:
Assay in all cases: fluorogenic peptidase assay, initial rate
Type in all cases: biochemical
cathepsin B = cathepsin B (Homo sapiens, UniProt P07858)
cathepsin K = biological target: T1, cathepsin K (Homo sapiens, UniProt P43235)
T1 sequence (P43235 115-329): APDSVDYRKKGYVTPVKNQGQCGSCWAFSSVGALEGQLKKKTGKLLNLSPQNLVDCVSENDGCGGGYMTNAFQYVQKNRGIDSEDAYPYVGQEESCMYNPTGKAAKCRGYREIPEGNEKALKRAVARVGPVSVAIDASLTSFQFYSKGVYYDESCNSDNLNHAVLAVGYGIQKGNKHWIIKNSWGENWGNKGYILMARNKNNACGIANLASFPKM

cathepsin L = cathepsin L (Homo sapiens, UniProt P07711)
cathepsin L, sequence (P07711 114-288): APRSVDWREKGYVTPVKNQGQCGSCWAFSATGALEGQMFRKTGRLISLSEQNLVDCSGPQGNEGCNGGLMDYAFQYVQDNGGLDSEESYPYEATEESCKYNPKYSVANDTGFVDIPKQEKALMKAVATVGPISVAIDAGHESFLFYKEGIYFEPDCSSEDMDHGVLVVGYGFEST
cathepsin L, sequence (P07711 292-333): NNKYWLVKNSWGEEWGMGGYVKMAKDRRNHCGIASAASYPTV

C[C@@H](OC(C)(C)C)[C@H](NC(=O)OCc1ccccc1)C(=O)N[C@@H](CC1CCCCC1)C(=O)N[C@H](C=O)C[C@@H]1CCNC1=O [MPI8]
IC50 (cathepsin B): 230 ± 20 nM

C[C@@H](OC(C)(C)C)[C@H](NC(=O)OCc1ccccc1)C(=O)N[C@@H](Cc1ccccc1)C(=O)N[C@H](C=O)C[C@@H]1CCNC1=O [MPI7]
IC50 (cathepsin B): 64 ± 7 nM | IC50 (cathepsin K): 51 ± 6 nM | IC50 (cathepsin L): 0.61 ± 0.15 nM

CC(C)C[C@H](NC(=O)[C@@H](NC(=O)OCc1ccccc1)C(C)C)C(=O)N[C@H](C=O)C[C@@H]1CCNC1=O [MPI3]
IC50 (cathepsin B): 112 ± 10 nM | IC50 (cathepsin K): 1.18 ± 0.18 nM | IC50 (cathepsin L): 0.3 ± 0.07 nM

O=C[C@H](C[C@@H]1CCNC1=O)NC(=O)[C@H](Cc1ccccc1)NC(=O)OCc1ccccc1 [MPI1]
IC50 (cathepsin B): 25 ± 2 nM | IC50 (cathepsin K): 0.88 ± 0.12 nM | IC50 (cathepsin L): 0.079 ± 0.029 nM

CC(C)C[C@H](NC(=O)[C@@H](NC(=O)OCc1ccccc1)[C@@H](C)OC(C)(C)C)C(=O)N[C@H](C=O)C[C@@H]1CCNC1=O [MPI6]
IC50 (cathepsin B): 380 ± 21 nM | IC50 (cathepsin K): 1.07 ± 0.21 nM | IC50 (cathepsin L): 0.45 ± 0.08 nM

O=C[C@H](C[C@@H]1CCNC1=O)NC(=O)[C@H](Cc1ccccc1)NC(=O)/C=C/c1ccc(Cl)cc1F [MPI2]
IC50 (cathepsin B): 4.1 ± 0.4 nM | IC50 (cathepsin K): 0.78 ± 0.06 nM | IC50 (cathepsin L): 0.19 ± 0.03 nM

CC(C)[C@H](NC(=O)OCc1ccccc1)C(=O)N[C@@H](CC1CCCCC1)C(=O)N[C@H](C=O)C[C@@H]1CCNC1=O [MPI5]
IC50 (cathepsin B): 80 ± 6 nM | IC50 (cathepsin K): 134 ± 18 nM | IC50 (cathepsin L): 2.3 ± 1.9 nM

CC(C)[C@H](NC(=O)OCc1ccccc1)C(=O)N[C@@H](Cc1ccccc1)C(=O)N[C@H](C=O)C[C@@H]1CCNC1=O [MPI4]
IC50 (cathepsin B): 46 ± 3 nM | IC50 (cathepsin K): 49 ± 16 nM | IC50 (cathepsin L): 0.33 ± 0.04 nM

O=C[C@H](C[C@@H]1CCNC1=O)NC(=O)[C@H](CC1CCCCC1)NC(=O)c1cc2ccccc2[nH]1 [11a]
IC50 (cathepsin B): 4.9 ± 0.4 nM | IC50 (cathepsin K): 1.4 ± 0.2 nM | IC50 (cathepsin L): 0.14 ± 0.04 nM

CC(C)C[C@H](NC(=O)[C@@H](NC(=O)/C=C/c1ccc(Cl)cc1F)C(C)C)C(=O)N[C@H](C=O)C[C@@H]1CCNC1=O [MPI9]
IC50 (cathepsin B): 147 ± 10 nM | IC50 (cathepsin K): 1.5 ± 0.2 nM | IC50 (cathepsin L): 0.56 ± 0.06 nM
